Test results as given in ChEMBL document CHEMBL4033647, “Novel coumarin- and quinolinone-based polycycles as cell division cycle 25-A and -C phosphatases inhibitors induce proliferation arrest and apoptosis in cancer cells” (Eur J Med Chem, 2017).
Active and inactive are the calls of the source. No cut-off for these calls is given here.

Legend:
MCF7 = assay: Cytotoxicity against human MCF7 cells assessed as reduction in cell viability after 72 hrs by MTT assay; format: functional, cell-based; settings: MCF7, 72 h
SK-MEL-28 = assay: Cytotoxicity against human SK-MEL-28 cells assessed as reduction in cell viability after 72 hrs by MTT assay; format: functional, cell-based; settings: SK-MEL-28, 72 h
[1] = target: T1, M-phase inducer phosphatase 3 (Homo sapiens, UniProt P30307); assay: Inhibition of recombinant human full length GST-tagged CDC25C expressed in Escherichia coli BL21-DE3 pLysS using 3-O-methylfluorescein phosphate as substrate after 2 hrs by fluorimetric analysis
T1 sequence (P30307 whole entry): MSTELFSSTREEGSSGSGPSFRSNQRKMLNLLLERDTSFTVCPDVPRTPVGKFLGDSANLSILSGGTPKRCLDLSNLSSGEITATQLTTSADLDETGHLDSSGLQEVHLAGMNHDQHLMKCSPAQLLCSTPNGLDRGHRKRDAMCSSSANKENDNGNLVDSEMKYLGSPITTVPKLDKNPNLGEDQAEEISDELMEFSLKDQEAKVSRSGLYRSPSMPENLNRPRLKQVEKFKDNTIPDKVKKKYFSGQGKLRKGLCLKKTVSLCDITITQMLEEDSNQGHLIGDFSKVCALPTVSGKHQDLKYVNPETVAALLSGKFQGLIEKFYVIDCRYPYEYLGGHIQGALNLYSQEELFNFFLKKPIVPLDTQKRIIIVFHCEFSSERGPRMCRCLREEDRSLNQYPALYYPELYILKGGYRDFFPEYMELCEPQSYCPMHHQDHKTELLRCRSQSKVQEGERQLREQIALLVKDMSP

[2] = target: T2, M-phase inducer phosphatase 1 (Homo sapiens, UniProt P30304); assay: Inhibition of recombinant human full length GST-tagged CDC25A expressed in Escherichia coli BL21-DE3 pLysS using 3-O-methylfluorescein phosphate as substrate after 2 hrs by fluorimetric analysis
T2 sequence (P30304 whole entry): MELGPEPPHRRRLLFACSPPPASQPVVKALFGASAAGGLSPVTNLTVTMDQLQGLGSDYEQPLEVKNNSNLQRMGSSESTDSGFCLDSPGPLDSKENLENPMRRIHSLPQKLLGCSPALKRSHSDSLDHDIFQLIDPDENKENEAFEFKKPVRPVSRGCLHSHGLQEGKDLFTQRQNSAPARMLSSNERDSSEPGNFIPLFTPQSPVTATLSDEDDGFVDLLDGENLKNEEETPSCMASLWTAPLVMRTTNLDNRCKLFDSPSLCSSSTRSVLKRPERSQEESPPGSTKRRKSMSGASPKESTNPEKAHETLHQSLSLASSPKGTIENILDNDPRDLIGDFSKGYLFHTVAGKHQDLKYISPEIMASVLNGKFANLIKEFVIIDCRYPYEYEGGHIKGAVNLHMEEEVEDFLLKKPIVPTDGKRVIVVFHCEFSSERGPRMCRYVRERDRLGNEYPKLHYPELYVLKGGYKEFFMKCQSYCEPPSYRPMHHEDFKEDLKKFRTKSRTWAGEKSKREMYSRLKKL

Hs 683 = assay: Cytotoxicity against human Hs683 cells assessed as reduction in cell viability after 72 hrs by MTT assay; format: functional, cell-based; settings: Hs 683, 72 h
[3] = Cytotoxicity against human U373n cells assessed as reduction in cell viability after 72 hrs by MTT assay; format: functional, cell-based
A549 = assay: Cytotoxicity against human A549 cells assessed as reduction in cell viability after 72 hrs by MTT assay; format: functional, cell-based; settings: A549, 72 h
PC-3 = assay: Cytotoxicity against human PC3 cells assessed as reduction in cell viability after 72 hrs by MTT assay; format: functional, cell-based; settings: PC-3, 72 h
A-431 [4] = assay: Cell cycle arrest in human A431 cells assessed as accumulation at G1 phase at 50 uM after 24 hrs by propidium iodide staining based flow cytometric analysis (reference value: 53.04%); format: functional
[5] = target: T3, M-phase inducer phosphatase 3 (Homo sapiens) (UniProt P30307); settings: 10 to 50 uM
T3 sequence (whole entry): T1 sequence (P30307 whole entry)
Description: Inhibition of CDC25C in human A431 cells assessed as increase in CDK-mediated phosphorylation of histone H3 at Ser10 residues at 10 to 50 uM after 24 hrs by Western blot analysis

A-431 [6] = assay: Cell cycle arrest in human A431 cells assessed as accumulation at G2/M phase at 10 uM after 24 hrs by propidium iodide staining based flow cytometric analysis (reference value: 26.23%); format: functional
A-431 [7] = assay: Cytotoxicity against human A431 cells assessed as reduction in cell viability after 24 hrs by MTT assay; format: functional, cell-based; settings: A-431, 24 h
A-431 [8] = assay: Cell cycle arrest in human A431 cells assessed as accumulation at S phase at 50 uM after 24 hrs by propidium iodide staining based flow cytometric analysis (reference value: 17.33%); format: functional
A-431 [9] = assay: Induction of apoptosis in human A431 cells assessed as caspase-3 cleavage at 10 to 50 uM after 24 hrs by Western blot analysis; format: functional, cell-based
A-431 [10] = assay: Cell cycle arrest in human A431 cells assessed as accumulation at subG1 phase at 50 uM after 24 hrs by propidium iodide staining based flow cytometric analysis (reference value: 3.40%); format: functional
A-431 [11] = assay: Cell cycle arrest in human A431 cells assessed as accumulation at G2/M phase at 50 uM after 24 hrs by propidium iodide staining based flow cytometric analysis (reference value: 26.23%); format: functional
A-431 [12] = assay: Cell cycle arrest in human A431 cells assessed as accumulation at subG1 phase at 10 uM after 24 hrs by propidium iodide staining based flow cytometric analysis (reference value: 3.40%); format: functional
A-431 [13] = assay: Cell cycle arrest in human A431 cells assessed as accumulation at S phase at 10 uM after 24 hrs by propidium iodide staining based flow cytometric analysis (reference value: 17.33%); format: functional
Homo sapiens = organism: Homo sapiens; assay: Selectivity ratio of IC50 for recombinant human full length GST-tagged CDC25A expressed in Escherichia coli BL21-DE3 pLysS to IC50 for recombinant human full length GST-tagged CDC25C expressed in Escherichia coli BL21-DE3 pLysS
A-431 [14] = assay: Cell cycle arrest in human A431 cells assessed as accumulation at G1 phase at 10 uM after 24 hrs by propidium iodide staining based flow cytometric analysis (reference value: 53.04%); format: functional
A-431 [15] = assay: Effect on CDC25C splice variant protein expression in human A431 cell extract at 50 uM after 24 hrs by Western blot analysis; format: functional, cell-based
A-431 [16] = assay: Decrease in CDC25C protein expression level in human A431 cell extract at 50 uM after 24 hrs by Western blot analysis; format: functional, cell-based
A-431 [17] = assay: Induction of apoptosis in human A431 cells assessed as PARP cleavage at 50 uM after 24 hrs by Western blot analysis; format: functional, cell-based

| SMILES | IC50 (MCF7) [µM] | IC50 (SK-MEL-28) [µM] | IC50 [1] [µM] | IC50 [2] [µM] | IC50 (Hs 683) [µM] | IC50 [3] [µM] | IC50 (A549) [µM] | IC50 (PC-3) [µM] | also measured |
| --- | --- | --- | --- | --- | --- | --- | --- | --- | --- |
| CCN(CC)c1ccc2c(c1)oc(=O)c1c3c(ccc12)C(=O)C=CC3=O | 58 | 72 | 0.3 | 1.2 | 98 | 59 | 98 | 45 |  |
| O=C1C=CC(=O)c2c1ccc1c2c(=O)[nH]c2ccccc21 | 0.9 | 1.5 | 3.64 | 7.73 | 2.8 | 2.7 | 1.8 | 0.9 | Activity (A-431 [4]): 53.93%; inhibition [5]: Active; Activity (A-431 [6]): 24.83%; IC50 (A-431 [7]): 8.2 µM; Activity (A-431 [8]): 6.98%; Activity (A-431 [9]): inactive; Activity (A-431 [10]): 12.81%; Activity (A-431 [11]): 26.28%; Activity (A-431 [12]): 6.26%; Activity (A-431 [13]): 11.9%; Ratio IC50 (Homo sapiens): 2; Activity (A-431 [14]): 57.01%; Activity (A-431 [15]): Active; Activity (A-431 [16]): Active |
| O=C1C=CC(=O)c2c1ccc1c2c(=O)[nH]c2cc(F)ccc21 | 27 | 8 | 4.46 | 2.85 | 9 | 3 | 18 | 4 |  |
| O=C1C=CC(=O)c2c1ccc1c2c(=O)[nH]c2ccc(F)cc21 | 4 | 3 | 4.67 | 3.37 | 3 | 2 | 4 | 3 |  |
| O=C1C=CC(=O)c2c1ccc1c2c(=O)oc2ccc(F)cc21 | 3 | 40 | 0.4 | 3.5 | 19 | 36 | 17 | 43 | Ratio IC50 (Homo sapiens): 8.75 |
| Cn1c(=O)c2c3c(ccc2c2ccccc21)C(=O)C=CC3=O | 34 | 68 | 14.9 | 13 | 67 | 41 | 68 | 32 |  |
| O=C1C=CC(=O)c2c1ccc1c2c(=O)oc2ccc(Cl)cc21 | 13 | 33 | 1.44 | 2.57 | 6 | 12 | 25 | 19 |  |
| COc1ccc2c(c1)oc(=O)c1c3c(ccc12)C(=O)C=CC3=O | 9 | 31 | 0.98 | 2.88 | 24 | 16 | 30 | 31 |  |
| O=C1C=CC(=O)c2c1ccc1c2c(=O)oc2cc(Cl)ccc21 | 2.8 | 7.8 | 0.77 | 1.61 | 1.2 | 3.7 | 3.2 | 4.4 | Activity (A-431 [4]): 53.78%; Activity (A-431 [6]): 28.92%; IC50 (A-431 [7]): 29.2 µM; Activity (A-431 [8]): 16.24%; Activity (A-431 [9]): inactive; Activity (A-431 [17]): inactive; Activity (A-431 [10]): 4.07%; Activity (A-431 [11]): 25.91%; Activity (A-431 [12]): 3.6%; Activity (A-431 [13]): 18.57%; Activity (A-431 [14]): 48.91%; Activity (A-431 [15]): inactive; Activity (A-431 [16]): inactive |
| O=C1C=CC(=O)c2c1ccc1c2c(=O)[nH]c2c3ccccc3ccc12 | 30 | 72 | 4.37 | 3.23 | 30 | 42 | 45 | 42 |  |
| O=C1C=CC(=O)c2c1ccc1c2c(=O)oc2cc(O)ccc21 | 9 | 29 | 0.8 | 6.6 | 11 | 9 | 19 | 27 |  |
| O=C1C=CC(=O)c2c1ccc1c2c(=O)oc2cc(F)ccc21 | 11 | 18 | 0.69 | 2.19 | 4 | 7 | 1 | 36 |  |
| O=C1C(SCCO)=C(SCCO)C(=O)c2ccccc21 | 0.96 | 2.3 |  |  | 2.8 | 1.85 | 1.45 | 3.4 |  |
| O=C1C=CC(=O)c2c1ccc1c2c(=O)oc2c3ccccc3ccc12 | 7 | > 100 | 0.1 | 1.5 | 4 | 55 | 70 | 75 | Ratio IC50 (Homo sapiens): 15 |
| O=C1C=CC(=O)c2c1ccc1c2c(=O)[nH]c2cc(Cl)ccc21 | 2 | 5 | 5.5 | 4.04 | 1 | 1 | 0.13 | 4 |  |
| O=C1C=CC(=O)c2c1ccc1c2c(=O)oc2cc(OCc3ccccc3)ccc21 | > 100 | > 100 | 7.12 | 3.11 | > 100 | > 100 | > 100 | > 100 |  |
| Cc1ccc2c(c1)oc(=O)c1c3c(ccc12)C(=O)C=CC3=O | 82 | > 100 | 1 | 2.9 | > 100 | 98 | > 100 | > 100 |  |
